In brackets after ≈: the same amount, converted by molar mass. Blank lines part the entries; values can stand above or below the compound they belong to.
Tests used:
[1] = Stickiness comparison (average punch residue of tablets); assay type: physicochemical; conditions: tablets with microcrystalline cellulose and calcium sulphate dihydrate, 20 mm punch, 400 mg tablet, slope over runs of 50-300 tablets
Description: An amlodpine free base tablet according to the present invention is preferably a low punch residue tablet. A “low punch residue” as used herein means that the average amount of amlodipine left on a tablet punch is not more than 1 μg/cm^2 per tablet based on a 20 mm round flat punch with a compression force of 15 kilo-newtons. Preferably, the tablet has an average punch residue of 0.7 μg/cm^2 per tablet, more preferably 0.6 μg/cm^2 per tablet. The amount of amlodipine residue can be measured by the process described in EP 244 944. In general the method involves washing the punch after runs of 50, 100, 150, 200, 250 and 300 tablets, using methanol and an ultrasonic bath. The amount of amlodipine in the samples is measured by uv and the total amount of amlodipine extracted from both the upper and lower punch is plotted against the amount of tablets made. An average value for amlodipine residue (stickiness) is calculated from the slope of the regression line by forcing the y-intercept of the line through zero.
After 50 tablets, the tablet material was extracted from the punches using methanol and an ultrasonic bath. […] The extracts together with Amlodipine calibration samples were measured spectrometrically. […] An average value for stickiness was calculated from the slope of the regression line by forcing the y-intercept of the line through zero.

[2] = solid amlodipine free base; Int. J. of Pharmaceutics 133, 71-83 (1996); cited from earlier work
[3] = Solid-state stability of crystalline Form II on standing; assay type: physicochemical; conditions: after 1 month standing at 60° C.
Description: The amlodipine free base can be of any form including crystalline form I, crystalline form II or amorphous. […] This form corresponds to the material described by […] and Deasy. […] Although it is possible to convert Form II into Form I by applying sufficiently high temperatures, generally over 100 C., Form II is generally stable at ambient conditions and even at moderately elevated temperatures. For instance, the Form II is stable after 1 month standing at 60° C. Accordingly, Form II is thus useful in manufacturing of pharmaceutical final forms. The amlodipine free base in the tablet of the present invention can be of a single type or can be a mixture. For example, a mixture of crystalline Forms I and II.

Average residue (stickiness) ([1]; listed as Amlodipine base): 0.55 μg ADP.cm^−2.tablet^−1
SMILES: CCOC(=O)C1=C(COCCN)NC(C)=C(C(=O)OC)C1c1ccccc1Cl (stereo not shown) [amlodipine free base, 2-[(2-aminoethoxy)methyl]-4-(2-chlorophenyl)-3-ethoxycarbonyl-5-methoxycarbonyl-6-methyl-1,4-dihydropyridine]
aqueous solubility [2]: 77.4 µg/mL (≈ 189 µM)

Average residue (stickiness) [1]: 1.16 μg ADP.cm^−2.tablet^−1
SMILES: CCOC(=O)C1=C(COCCN)NC(C)=C(C(=O)OC)C1c1ccccc1Cl (stereo not shown) [amlodipine besylate]

stability of crystalline form [3]: stable
SMILES: CCOC(=O)C1=C(COCCN)NC(C)=C(C(=O)OC)C1c1ccccc1Cl (stereo not shown) [Form II]

Reference: patent publication US7335380B2 (Synthon IP Inc., priority 2000, dated 2008)
